Test system: subjects with heart failure
Test: Human hemodynamics (impedance cardiography), subjects with stable heart failure, 7.5-hour ascending dose IV infusion
Format: in vivo
Conditions: for Heart Rate CFB / Heart Rate Percent CFB: placebo-subtracted; for Cardiac Index CFB / Cardiac Index Percent CFB / Cardiac Output CFB / Cardiac Output Percent CFB / Diastolic Blood Pressure CFB / Diastolic Blood Pressure Percent CFB / Stroke Volume CFB / Stroke Volume Percent CFB / Systolic Blood Pressure CFB / Systolic Blood Pressure Percent CFB: post hoc analysis
Experimental: Efficacy was based on the pharmacodynamic evaluation of hemodynamics, which was monitored using the noninvasive technique of impedance cardiography. Heart rate values were collected by impedance cardiography measurements. It was noted that the heart rate of subjects receiving placebo were elevated on the day of their infusions, at baseline before the infusion, and for the first 3 to 4 hours after the infusions were started (FIG. 17). Based on this observation, it appeared that there was a potential effect of period on the observed heart rate.
A post hoc graphical analysis of the hemodynamic data was done to adjust for the elevated baseline values seen just before onset of the infusion, to obtain the best estimate of each hemodynamic parameter, and to correct for the effect of period. A post hoc graphic presentation was prepared from the complete (high frequency) dataset. This dataset contains the raw data that were further processed by the vendor (ie, CardioDynamics) and reported only at specific time points.
In this post hoc analysis an extended baseline was used for each value that included all values recorded before initiation of the infusion. Then an average value for each parameter was obtained from the last 30 minutes of each 2.5 hour infusion and was used as the effect in that period of the infused dose. Each value was modified for the effect of period of infusion by subtracting the mean change from baseline seen in placebo subjects dosed in that same period (placebo subtraction). The dose effect was estimated by averaging the values from all subjects who received the same dose after the placebo subtraction.
As may have occurred in healthy subjects, subjects with stable heart failure may have experienced anxiety before the start of the infusion that contributed to this increase in baseline heart rate values.

H-TKFTLSLDVPTNIMNLLFNIAKAKNLRAQAAANAHLMAQI-NH2 [SEQ ID NO: 1, TKFTLSLDVPTNIMNLLFNIAKAKNLRAQAAANAHLMAQI-NH2]
increase in heart rate (highest dose of 54 ng/kg/min): ~10 bpm | Heart Rate CFB (infusion rate 0.3 ng/kg/min): 1.5 bpm | Heart Rate Percent CFB (infusion rate 0.3 ng/kg/min): 3.0% | Cardiac Index CFB (infusion rate 0.3 ng/kg/min): 0.3 L/min/m^2 | Cardiac Index Percent CFB (infusion rate 0.3 ng/kg/min): 13.9% | Cardiac Output CFB (infusion rate 0.3 ng/kg/min): 0.7 L/min | Cardiac Output Percent CFB (infusion rate 0.3 ng/kg/min): 14.2% | Diastolic Blood Pressure CFB (infusion rate 0.3 ng/kg/min): −8.6 mm Hg | Diastolic Blood Pressure Percent CFB (infusion rate 0.3 ng/kg/min): −12.6% | Stroke Volume CFB (infusion rate 0.3 ng/kg/min): 7.6 mL | Stroke Volume Percent CFB (infusion rate 0.3 ng/kg/min): 9.5% | Systolic Blood Pressure CFB (infusion rate 0.3 ng/kg/min): −18.2 mm Hg | Systolic Blood Pressure Percent CFB (infusion rate 0.3 ng/kg/min): −15.8% | Heart Rate CFB (infusion rate 1 ng/kg/min): −0.4 bpm | Heart Rate Percent CFB (infusion rate 1 ng/kg/min): 0.2% | Cardiac Index CFB (infusion rate 1 ng/kg/min): 0.2 L/min/m^2 | Cardiac Index Percent CFB (infusion rate 1 ng/kg/min): 10.1% | Cardiac Output CFB (infusion rate 1 ng/kg/min): 0.5 L/min | Cardiac Output Percent CFB (infusion rate 1 ng/kg/min): 10.2% | Diastolic Blood Pressure CFB (infusion rate 1 ng/kg/min): −6.1 mm Hg | Diastolic Blood Pressure Percent CFB (infusion rate 1 ng/kg/min): −9.1% | Stroke Volume CFB (infusion rate 1 ng/kg/min): 6.6 mL | Stroke Volume Percent CFB (infusion rate 1 ng/kg/min): 9.1% | Systolic Blood Pressure CFB (infusion rate 1 ng/kg/min): −4.9 mm Hg | Systolic Blood Pressure Percent CFB (infusion rate 1 ng/kg/min): −4.7% | Heart Rate CFB (infusion rate 3 ng/kg/min): −1.3 bpm | Heart Rate Percent CFB (infusion rate 3 ng/kg/min): −0.9% | Cardiac Index CFB (infusion rate 3 ng/kg/min): 0.1 L/min/m^2 | Cardiac Index Percent CFB (infusion rate 3 ng/kg/min): 6.9% | Cardiac Output CFB (infusion rate 3 ng/kg/min): 0.3 L/min | Cardiac Output Percent CFB (infusion rate 3 ng/kg/min): 7.0% | Diastolic Blood Pressure CFB (infusion rate 3 ng/kg/min): −8.6 mm Hg | Diastolic Blood Pressure Percent CFB (infusion rate 3 ng/kg/min): −13.0% | Stroke Volume CFB (infusion rate 3 ng/kg/min): 4.8 mL | Stroke Volume Percent CFB (infusion rate 3 ng/kg/min): 7.3% | Systolic Blood Pressure CFB (infusion rate 3 ng/kg/min): −9.5 mm Hg | Systolic Blood Pressure Percent CFB (infusion rate 3 ng/kg/min): −9.2% | Heart Rate CFB (infusion rate 9 ng/kg/min): 0.2 bpm | Heart Rate Percent CFB (infusion rate 9 ng/kg/min): 1.5% | Cardiac Index CFB (infusion rate 9 ng/kg/min): 0.2 L/min/m^2 | Cardiac Index Percent CFB (infusion rate 9 ng/kg/min): 9.1% | Cardiac Output CFB (infusion rate 9 ng/kg/min): 0.5 L/min | Cardiac Output Percent CFB (infusion rate 9 ng/kg/min): 9.2% | Diastolic Blood Pressure CFB (infusion rate 9 ng/kg/min): −8.6 mm Hg | Diastolic Blood Pressure Percent CFB (infusion rate 9 ng/kg/min): −11.9% | Stroke Volume CFB (infusion rate 9 ng/kg/min): 5.9 mL | Stroke Volume Percent CFB (infusion rate 9 ng/kg/min): 7.6% | Systolic Blood Pressure CFB (infusion rate 9 ng/kg/min): −10.6 mm Hg | Systolic Blood Pressure Percent CFB (infusion rate 9 ng/kg/min): −9.4% | Heart Rate CFB (infusion rate 18 ng/kg/min): 0.8 bpm | Heart Rate Percent CFB (infusion rate 18 ng/kg/min): 2.5% | Cardiac Index CFB (infusion rate 18 ng/kg/min): 0.4 L/min/m^2 | Cardiac Index Percent CFB (infusion rate 18 ng/kg/min): 14.5% | Cardiac Output CFB (infusion rate 18 ng/kg/min): 0.8 L/min | Cardiac Output Percent CFB (infusion rate 18 ng/kg/min): 15.5% | Diastolic Blood Pressure CFB (infusion rate 18 ng/kg/min): −7.6 mm Hg | Diastolic Blood Pressure Percent CFB (infusion rate 18 ng/kg/min): −11.4% | Stroke Volume CFB (infusion rate 18 ng/kg/min): 9.3 mL | Stroke Volume Percent CFB (infusion rate 18 ng/kg/min): 12.9% | Systolic Blood Pressure CFB (infusion rate 18 ng/kg/min): −8.8 mm Hg | Systolic Blood Pressure Percent CFB (infusion rate 18 ng/kg/min): −8.7% | Heart Rate CFB (infusion rate 36 ng/kg/min): 3.6 bpm | Heart Rate Percent CFB (infusion rate 36 ng/kg/min): 6.3% | Cardiac Index CFB (infusion rate 36 ng/kg/min): 0.3 L/min/m^2 | Cardiac Index Percent CFB (infusion rate 36 ng/kg/min): 12.4% | Cardiac Output CFB (infusion rate 36 ng/kg/min): 0.7 L/min | Cardiac Output Percent CFB (infusion rate 36 ng/kg/min): 12.4% | Diastolic Blood Pressure CFB (infusion rate 36 ng/kg/min): −12.5 mm Hg | Diastolic Blood Pressure Percent CFB (infusion rate 36 ng/kg/min): −18.5% | Stroke Volume CFB (infusion rate 36 ng/kg/min): 4.2 mL | Stroke Volume Percent CFB (infusion rate 36 ng/kg/min): 6.0% | Systolic Blood Pressure CFB (infusion rate 36 ng/kg/min): −16.4 mm Hg | Systolic Blood Pressure Percent CFB (infusion rate 36 ng/kg/min): −14.9% | Heart Rate CFB (infusion rate 45 ng/kg/min): 3.8 bpm | Heart Rate Percent CFB (infusion rate 45 ng/kg/min): 7.5% | Cardiac Index CFB (infusion rate 45 ng/kg/min): 0.3 L/min/m^2 | Cardiac Index Percent CFB (infusion rate 45 ng/kg/min): 12.6% | Cardiac Output CFB (infusion rate 45 ng/kg/min): 0.7 L/min | Cardiac Output Percent CFB (infusion rate 45 ng/kg/min): 13.3% | Diastolic Blood Pressure CFB (infusion rate 45 ng/kg/min): −12.6 mm Hg | Diastolic Blood Pressure Percent CFB (infusion rate 45 ng/kg/min): −19.0% | Stroke Volume CFB (infusion rate 45 ng/kg/min): 3.3 mL | Stroke Volume Percent CFB (infusion rate 45 ng/kg/min): 5.4% | Systolic Blood Pressure CFB (infusion rate 45 ng/kg/min): −12.0 mm Hg | Systolic Blood Pressure Percent CFB (infusion rate 45 ng/kg/min): −11.7% | Heart Rate CFB (infusion rate 54 ng/kg/min): 7.0 bpm | Heart Rate Percent CFB (infusion rate 54 ng/kg/min): 11.5% | Cardiac Index CFB (infusion rate 54 ng/kg/min): 0.2 L/min/m^2 | Cardiac Index Percent CFB (infusion rate 54 ng/kg/min): 7.5% | Cardiac Output CFB (infusion rate 54 ng/kg/min): 0.4 L/min | Cardiac Output Percent CFB (infusion rate 54 ng/kg/min): 11.5% | Diastolic Blood Pressure CFB (infusion rate 54 ng/kg/min): −14.4 mm Hg | Diastolic Blood Pressure Percent CFB (infusion rate 54 ng/kg/min): −23.9% | Stroke Volume CFB (infusion rate 54 ng/kg/min): -2.5 mL | Stroke Volume Percent CFB (infusion rate 54 ng/kg/min): 0.5% | Systolic Blood Pressure CFB (infusion rate 54 ng/kg/min): −18.8 mm Hg | Systolic Blood Pressure Percent CFB (infusion rate 54 ng/kg/min): −21.4%

— patent US20110105397A1, “METHOD FOR TREATING HEART FAILURE WITH STRESSCOPIN-LIKE PEPTIDES” (priority 2009, published 2011)
